Source: patent US20210009542A1 (Calico Life Sciences LLC, priority 2018, published 2021)
Read-outs that look alike come from different tables or passages of the source.

Assays:
[1] = target: T1, His tagged PTPN2 (TC45) protein (Homo sapiens, UniProt P17706); experiment: Mobility shift assay (MSA) for potency of PTPN2 inhibitors; assay type: biochemical; conditions: read-out: PTPN2 MSA IC50
T1 construct: made in house
T1 sequence (P17706 with tags, fused parts or gaps isoform P17706-2): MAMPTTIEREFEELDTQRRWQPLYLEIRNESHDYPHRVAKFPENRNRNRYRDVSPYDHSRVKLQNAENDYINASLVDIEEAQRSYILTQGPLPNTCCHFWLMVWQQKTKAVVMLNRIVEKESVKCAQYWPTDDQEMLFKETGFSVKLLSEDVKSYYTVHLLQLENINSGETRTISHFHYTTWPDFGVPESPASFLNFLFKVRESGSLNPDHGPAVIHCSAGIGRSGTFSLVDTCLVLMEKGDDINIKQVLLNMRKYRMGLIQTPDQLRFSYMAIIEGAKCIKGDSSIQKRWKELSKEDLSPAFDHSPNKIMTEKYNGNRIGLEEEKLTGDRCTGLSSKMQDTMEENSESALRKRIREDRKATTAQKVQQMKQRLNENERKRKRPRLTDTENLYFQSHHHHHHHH
Procedure, shortened: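 IC50 values were derived from % inhibition of substrate conversion, measured by microfluidic mobility shift (ex 488/em 530) after quenching. The fluorescent phosphotyrosine insulin-receptor peptide ([…]) reacted for 10 min at room temperature with 0.5 nM His-tagged TC45 PTPN2 that had been preincubated 10 min with compound (12 points, 1:3). Buffer was HEPES pH 7.5 with EGTA, EDTA, Tween 20 and DTT.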

[2] = test system: Pan T cells isolated from C57BL6 splenocytes; experiment: T cell activation assay (flow cytometry, CD25/CD69 on CD8 T cells); assay type: cell-based, mouse; conditions: for % CD25 within CD8+ / % CD69 within CD8+ / CD25 MFI / CD69 MFI: 30 μM compound, 2 days
Method: (§1) Pan T cells were isolated from C57BL6 splenocytes using a MACS Pan T cell isolation kit II (Miltenyi Biotec, Auburn, Calif.) according to the manufacturer's instructions. Isolated T cells (200,000 cells/well in a 96 well flat-bottom plate) were cultured in RPMI 1640 supplemented with 10% FBS, […] 2-mercatoethanol, 100 U/mL penicillin, and 100 μg/mL streptomycin, and incubated with the indicated concentration of compound or DMSO in duplicates. After 1 hour, mouse T cell activator CD3/CD28 Dynabeads (ThermoFisher Scientific, Waltham, Mass.) were added at a 1:5 beads to cells ratio to stimulate the T cells for 2 or 3 days as outlined below. T cells with or without compound were incubated in the absence of T cell activator beads (media only) as control.
After 2 days of stimulation, activation status of T cells was assessed by flow cytometry. T cells were first subjected to Zombie Violet™ Fixable Viability dye (BioLegend, San Diego, Calif.) for dead cell exclusion, washed and then stained with BUV805 labeled anti-CD8, APC-R700 labeled anti-CD25 (both from BD Biosciences, San Jose, Calif.) and PE labeled anti-CD69 (BioLegend, San Diego, Calif.) antibodies. After staining, cells were fixed with 2% paraformaldehyde and acquired on a BD LSRFortessa™ X-20 flow cytometer (BD Biosciences, San Jose, Calif.) using BD FACSDiva™ software. Data was analyzed using FlowJo V10 (Flow Jo LLC, Ashland, Oreg.). Dead cells were excluded and frequencies of activated CD8 T cells was reported as the frequency of CD25+ or CD69+ cells within the CD8+ population. The expression level of CD25 and CD69 indicates the activation status of cells on a per cell basis and was evaluated by the mean fluorescence intensities (MFI) of CD25 and CD69.

[3] = test system: B16F10 mouse melanoma cells; experiment: B16F10 IFNγ-induced cellular growth inhibition assay; assay type: cell-based; conditions: Mus musculus, B16-F10, 33 μM compound
Procedure, shortened: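 Live-cell imaging of confluence every 6 h over 5 days at 37 °C tracked growth of mouse B16F10 melanoma cells seeded overnight at 500/well. Semi-log compound series (final 100–0.001 μM, 0.1% DMSO) ran in both arms, ±IFNγ at 0.5 ng/mL final; inhibition taken relative to DMSO plus IFNγ when IFNγ-free DMSO wells passed 95% confluence.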

[4] = test system: Pan T cells isolated from C57BL6 splenocytes; experiment: T cell function assay (IFNγ and TNFα in supernatants, MSD V-plex); assay type: cell-based, mouse; conditions: 30 μM compound, 3 days, supernatant
Method: as §1
After 3 days of stimulation, supernatants were collected and IFNγ and TNFα in supernatants were assessed using an MSD V-plex assay (Meso Scale Discovery, Rockville, Md.).

[5] = target: T2, His tagged full-length PTP1B protein (Homo sapiens, UniProt P18031); experiment: Mobility shift assay (MSA) for potency of PTP1B inhibitors; assay type: biochemical
T2 construct: made in house
T2 sequence (P18031 with tags, fused parts or gaps): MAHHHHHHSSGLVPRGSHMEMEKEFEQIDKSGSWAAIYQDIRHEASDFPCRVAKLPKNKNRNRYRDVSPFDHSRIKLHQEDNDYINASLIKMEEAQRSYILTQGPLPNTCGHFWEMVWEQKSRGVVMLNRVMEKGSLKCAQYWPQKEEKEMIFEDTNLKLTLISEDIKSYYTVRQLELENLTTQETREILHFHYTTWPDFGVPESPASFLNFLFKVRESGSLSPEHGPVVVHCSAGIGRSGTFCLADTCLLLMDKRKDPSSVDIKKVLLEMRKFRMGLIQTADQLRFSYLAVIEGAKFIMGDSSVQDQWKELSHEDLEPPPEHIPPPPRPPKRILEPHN
Method: The enzymatic assay used to determine activity is a mobility shift assay using a LabChip EZ Reader by Caliper Life Sciences. The enzymatic reaction was carried out in assay buffer (50 mM HEPES pH 7.5, 1 mM EGTA, 10 mM EDTA, 0.01% Tween® 20, and 2 mM DTT). […] The enzyme (at 0.5 nM) was incubated with compound for 10 minutes at room temperature. […] The % inhibition was then used to calculate the IC50 values.

[6] = anti-CD3/anti-CD28 Dynabeads (1:5 beads:cells)
[7] = +0.5 ng/mL IFNγ, relative to DMSO control, read-out: % B16F10 growth inhibition (+0.5 ng/mL IFNγ) @ 33 μM
[8] = no IFNγ, read-out: % B16F10 growth inhibition (no IFNγ) @ 33 μM

IC50 [5]	SMILES	IC50 [1]	inhibition at 33 µM [3, 7]	inhibition at 33 µM [3, 8]	also measured
	O=C1CN(c2c(O)cc3ccc(C4=CCN(S(=O)(=O)C5CC5)C4)cc3c2F)S(=O)(=O)N1 [Compound 113, 5-{7-[1-(cyclopropanesulfonyl)-2,5-dihydro-1H-pyrrol-3-yl]-1-fluoro-3-hydroxynaphthalen-2-yl}-1λ^6,2,5-thiadiazolidine-1,1,3-trione]	< 1 nM	> 90%	< 25%	% CD25 within CD8+ [2, 6]: 44.55%; % CD69 within CD8+ [2, 6]: 73.95%; CD25 MFI [2, 6]: 1265; CD69 MFI [2, 6]: 1891; % CD25 within CD8+ ([2]; no TCR stimulation): 0.49%; % CD69 within CD8+ ([2]; no TCR stimulation): 0.24%; CD25 MFI ([2]; no TCR stimulation): 51.7; CD69 MFI ([2]; no TCR stimulation): 28.8; T cell activation and T cell function ([2]; with TCR stimulation): increased both T cell activation and T cell function; IFNγ [4, 6]: 356 ng/mL; TNFα [4, 6]: 208 ng/mL; IFNγ ([4]; no TCR stimulation): 1.2 ng/mL; TNFα ([4]; no TCR stimulation): 1.5 ng/mL
1 to 10 nM	O=C1CN(c2c(O)cc3ccc(OCC4CC4(F)F)cc3c2F)S(=O)(=O)N1 (stereo not shown) [Compound 210, 5-{7-[(2,2-difluorocyclopropyl)methoxy]-1-fluoro-3-hydroxynaphthalen-2-yl}-1λ^6,2,5-thiadiazolidine-1,1,3-trione]	< 1 nM	> 90%	< 25%	
1 to 10 nM	O=C1CN(c2c(O)cc3ccc(OCCC4CCCO4)cc3c2F)S(=O)(=O)N1 (stereo not shown) [Compound 213, 5-{1-fluoro-3-hydroxy-7-[2-(oxolan-2-yl)ethoxy]naphthalen-2-yl}-1λ^6,2,5-thiadiazolidine-1,1,3-trione]	< 1 nM	60 to 90%	< 25%	
> 100 nM	O=C1CN(c2c(O)cc3ccc(C4CCCOC4)cc3c2F)S(=O)(=O)N1 (stereo not shown) [Compound 249, 5-[1-fluoro-3-hydroxy-7-(oxan-3-yl)naphthalen-2-yl]-1λ^6,2,5-thiadiazolidine-1,1,3-trione]	1 to 10 nM	60 to 90%	< 25%	
> 100 nM	O=C1CN(c2c(O)cc3ccc(OCC4CCCO4)cc3c2F)S(=O)(=O)N1 (stereo not shown) [Compound 254, 5-{1-fluoro-3-hydroxy-7-[(oxolan-2-yl)methoxy]naphthalen-2-yl}-1λ^6,2,5-thiadiazolidine-1,1,3-trione]	1 to 10 nM	60 to 90%	< 25%	
> 100 nM	O=C1CN(c2c(O)cc3ccc(C4CCOC4)cc3c2F)S(=O)(=O)N1 (stereo not shown) [Compound 255, 5-[1-fluoro-3-hydroxy-7-(oxolan-3-yl)naphthalen-2-yl]-1λ^6,2,5-thiadiazolidine-1,1,3-trione]	1 to 10 nM	60 to 90%	< 25%	
1 to 10 nM	O=C1CN(c2c(O)cc3ccc(CC4CCCN(S(=O)(=O)C5CC5)C4)cc3c2F)S(=O)(=O)N1 (stereo not shown) [Compound 259, 5-(7-{[1-(cyclopropanesulfonyl)piperidin-3-yl]methyl}-1-fluoro-3-hydroxynaphthalen-2-yl)-1λ^6,2,5-thiadiazolidine-1,1,3-trione]	1 to 10 nM	< 25%	< 25%	
1 to 10 nM	O=C1CN(c2c(O)cc3ccc(CC4CCN(S(=O)(=O)C5CC5)C4)cc3c2F)S(=O)(=O)N1 (stereo not shown) [Compound 261, 5-(7-{[1-(cyclopropanesulfonyl)pyrrolidin-3-yl]methyl}-1-fluoro-3-hydroxynaphthalen-2-yl)-1λ^6,2,5-thiadiazolidine-1,1,3-trione]	1 to 10 nM	25 to 59%	< 25%	
> 100 nM	O=C1CN(c2c(O)cc3ccc(C4=CCOC4)cc3c2F)S(=O)(=O)N1 [Compound 263, 5-[7-(2,5-dihydrofuran-3-yl)-1-fluoro-3-hydroxynaphthalen-2-yl]-1λ^6,2,5-thiadiazolidine-1,1,3-trione]	< 1 nM	60 to 90%	< 25%	
> 100 nM	O=C1CN(c2c(O)cc3ccc(OCC4CCCOC4)cc3c2F)S(=O)(=O)N1 (stereo not shown) [Compound 271, 5-{1-fluoro-3-hydroxy-7-[(oxan-3-yl)methoxy]naphthalen-2-yl}-1λ^6,2,5-thiadiazolidine-1,1,3-trione]	< 1 nM	60 to 90%	< 25%	
< 1 nM	O=C1CN(c2c(O)cc3ccc(OCCNS(=O)(=O)C4COC4)cc3c2F)S(=O)(=O)N1 [Compound 298, N-(2-{[8-fluoro-6-hydroxy-7-(1,1,4-trioxo-1λ^6,2,5-thiadiazolidin-2-yl)naphthalen-2-yl]oxy}ethyl)oxetane-3-sulfonamide]	< 1 nM	> 90%	< 25%	
10 to 100 nM	O=C1CN(c2c(O)cc3ccc(NC4CCN(S(=O)(=O)C5CC5)C4)cc3c2F)S(=O)(=O)N1 (stereo not shown) [Compound 306, 5-(7-{[1-(cyclopropanesulfonyl)pyrrolidin-3-yl]amino}-1-fluoro-3-hydroxynaphthalen-2-yl)-1λ^6,2,5-thiadiazolidine-1,1,3-trione]	1 to 10 nM	60 to 90%	< 25%	
1 to 10 nM	CS(=O)(=O)N1CCC(F)(COc2ccc3cc(O)c(N4CC(=O)NS4(=O)=O)c(F)c3c2)C1 (stereo not shown) [Compound 307, 5-(1-fluoro-7-{[3-fluoro-1-(methanesulfonyl)pyrrolidin-3-yl]methoxy}-3-hydroxynaphthalen-2-yl)-1λ^6,2,5-thiadiazolidine-1,1,3-trione]	1 to 10 nM	25 to 59%	< 25%	
